{
  "source": "patent US20210186972A1",
  "about": "“FORMULATIONS AND METHODS FOR THE PREVENTION AND TREATMENT OF TUMOR METASTASIS AND TUMORIGENESIS” (THE UNITED STATES OF AMERICA, AS REPRESENTED BY THE …, priority 2018, published 2021)",
  "key": {"eEF1A": {"system": "eEF1A", "experiment": "Affinity purification with biotin-conjugated metarrestin and competition", "type": "binding", "description": "FIG. 35 is a Western blot illustrating that metarrestin effectively outcompeted recombinant eEF1A from binding to anchored biotinylated metarrestin-eEF1A complex. […] Increased eEF1A2 enhances PNCs and metastasis formation."}, "[1]": {"system": "Pol I transcription (5′ETS RNA)", "experiment": "rDNA transcription: BrU incorporation and qRT-PCR of 5′ETS", "type": "cell-based", "protocol": "To determine which steps in ribosomal biogenesis that are disrupted by metarrestin, rDNA transcription was evaluated using a BrU incorporation assay, an in situ run-on assay that detects the localization pattern of newly synthesized RNA. Cells were rinsed once in glycerol buffer (20 mM Tris-HCl pH 7.4, 5 mM MgCl2, 25% glycerol, 0.5 mM PMSF, 0.5 mM EGTA) and followed by Br—U incorporation assay protocol. The cells were co-immunolabeled with C23 (Santa Cruz Biotechnology) at a 1:100 dilution and anti-BrdU that also recognizes Br—U (Sigma) at a 1:50 dilution.\nTo evaluate the impact on rDNA transcription in metarrestin-treated cells, the amounts of 5′ETS RNA were quantified. The amount of 5′ETS correlates with the amount of rDNA transcription because 5′ETS in nascent pre-rRNA transcripts is rapidly removed.\nRT-PCR: Total RNA was isolated from cells using TRIZOL reagent (Invitrogen) according to the manufacturer's instructions. cDNA was synthesized with Random Hexamer (IDT DNA Technologies) or gene-specific primers using M-MLV Reverse Transcriptase (Invitrogen 28025-013). The DNA was PCR-amplified with gene-specific primers. 5′ETS-F: […] (SEQ ID NO: 11); 5′ETS-R: GAACGACACACCACCGTTC (SEQ ID NO: 12); eEF1A1-F: […] […]"}},
  "data": [
    {"smiles": "N=c1c2c(-c3ccccc3)c(-c3ccccc3)n(Cc3ccccc3)c2ncn1[C@H]1CC[C@H](O)CC1", "note": "[metarrestin]", "values": [
      {"measurement": "Binding to eEF1A (competition and proteomic analysis)", "setting": "eEF1A", "value": "metarrestin-binding protein"},
      {"measurement": "Organization of newly synthesized rRNA (BrU incorporation)", "setting": "[1]; five-minute incubation", "value": "altered into tight small clusters"},
      {"measurement": "5′ETS RNA (quantitative RT-PCR)", "setting": "[1]; vs DMSO-treated control cells", "value": "substantial reduction of 5′ETS RNA"}
    ]}
  ]
}
